Experimental data published in patent publication US11453674B2, “Heterocyclic compound, preparation method and use thereof in medicine” (SUZHOU SINOVENT PHARMACEUTICALS CO., LTD., priority 2019, dated 2022).
pIC50: −log10 of the molar value. Each block holds one compound with its values, some of them ahead of it.

Tests used:
[1] = test system: primary human hepatocytes; experiment: Cytotoxicity assay on primary human hepatocytes (CellTiter-Glo, 48 h); assay type: cell-based; settings: Hepatocyte, cell viability, 48 h incubation
Procedure: Example 26: Cytotoxicity Assay of Compounds on Primary Human Hepatocytes
Primary human hepatocytes were purchased from Biorecamation IVT. Co., Ltd. (lot no.: AKB/S1391); the components of in vitro culture media of primary human cell and suppliers are as follows:
1. Frozen primary human hepatocytes were thawed, then resuspended in a culture medium containing 10% FBS. The cells were transferred into a 96-well plate, at 8×10^4 cells/well, followed by incubating overnight in an incubator at 5% CO2 at 37° C.;
2. […] The test compounds and control drug were added to wells, at 100 μL/well, to form test compound wells or reference wells, and the culture medium containing 10% FBS was added to wells, at 100 μL/well, as negative control. The cells were incubated in an incubator in the presence of 5% CO2 at 37° C. for 48 h.
3. The primary human hepatocytes were washed with PBS (0.1 M, pH=7.4) twice, and were added with CellTiter-Glo reagent at 100 μL/well. Cell-free wells added with CellTiter-Glo reagent at 100 μL/well served as the blank control. The 96-well plate was shaken on a shaker for 5 min, and then left at room temperature for 10 min.
4. The chemiluminescence values were detected using Victor X4 (Perkin Elmer). The chemiluminescence values of the test compound wells were denoted as F(test compound), the chemiluminescence values of the blank control wells were denoted as F(blank), and the chemiluminescence values of the negative control wells were denoted as F(negative control). The cell viabilities at different concentrations were calculated according to the following formula. Each concentration was measured in triplicate to give the average and the standard deviation.
5. The half maximal inhibitory concentration (IC50) of the test compounds to the primary human hepatocytes were calculated using Prism Graph software.

[2] = molecular target: T1, CYP2C9 (Homo sapiens, UniProt P11712); experiment: Inhibitory effect on CYP2C9 enzyme in microsomes (diclofenac probe); assay type: in vitro ADME; settings: microsomes 0.25 mg/mL, diclofenac 10 μM; IC50 higher than that of benzbromarone
T1 construct: from tissue
Procedure: Example 27: Evaluating the Inhibitory Effects of Compounds on CYP2C9 Enzyme
The assay was performed in 100 mM phosphate buffer in a total volume of 200 μL. The microsome concentration in the reaction system was 0.25 mg/mL, the concentrations of the test compounds were 10, 3.33, 1.11, 0.37, 0.12, 0.04 and 0 μM, the CYP2C9-specific probe substrate and the concentration were diclofenac (10 μM). The mixture was pre-incubated in a 37° C. thermostatic oscillator for 5 min, and a NADPH-generating system (containing 1.3 mM NADP^+, 3.3 mM D(+)-glucopyranose-6-phosphate, […] glucose-6-phosphate dehydrogenase, 3.3 mM MgCl2) was added to start the reaction. After incubation for 10 min, the reaction was terminated by adding an equal volume of acetonitrile. The mixture was vortexed and centrifuged at 13,000 rpm. The resulting supernatant was loaded to LC-MS-MS to determine the content of metabolites. The metabolite of diclofenac specifically obtained by CYP2C9 metabolism pathway is 4-hydroxydiclofenac. Sulfaphenazole was adopted as a specific CYP2C9 inhibitor. In the experiment, analysis was performed by GraphPad Primsm 5.0 to calculate the half maximal inhibitory concentration (IC50 value).

[3] = test system: human hepatocytes; experiment: Metabolite study in human hepatocyte incubation system; assay type: in vitro ADME; settings: 180 min incubation, LC-MS
Procedure: (§1) Example 28: Study on Metabolites of Compound in Human and Rat Hepatocyte Incubation System
(§2) 1. Preparation of Stock and Working Solutions
(§3) Stock solution: A proper amount of test sample powders was dissolved in DMSO or other proper solvents, and the mixture was well mixed to give a stock solution (10 mM). The stock solution was preserved in a refrigerator at 4° C. for later use.
(§4) Working solution: The 10 mM stock solution was diluted to 1 mM working solution using acetonitrile, and well mixed for later use.
(§5) 2. Preparation of Thawing Medium I
(§6) Williams' Medium E, glutamate, HEPES, fetal bovine serum albumin, human recombinant insulin, dexamethasone, and cell separation medium (Percoll™) were mixed in a ratio of 700:10:15:50:1:0.1:300 for use.
(§7) 3. Preparation of Terminating Solution
(§8) An acetonitrile solution containing 0.1% formic acid was prepared as the terminating solution and preserved in a refrigerator at 4° C. for use.
(§9) 4. Isolation and Preparation of Hepatocyte Suspension
(§10) The cryopreserved hepatocytes were thawed in a water bath at 37° C. for about 90 s, and quickly poured into the pre-heated isolating buffer. Residual hepatocytes were washed using the isolating buffer. Cells were combined and mixed well, and centrifuged at room temperature for 5 min at 100×g. The supernatant was discarded and the cells were resuspended using pre-heated William' Medium E. 20 μL of hepatocyte suspension was added into 100 μL of 0.4% Trypan blue. The cells were counted, and a cell viability over 70% was required. The hepatocyte density was adjusted to 1.25×10^6 cells/mL using William' Medium E.
(§11) 5. Incubation and Treatment of Samples
(§12) 1) The test compound working solution was pre-incubated (pre-heated) in a constant-temperature incubator at 37° C. for 10 min. 2 μL of the working solution (1 mM) was pipetted to a cell culture plate containing 160 μL of hepatocyte suspension at 1.25×10^6 cells/mL, and the mixture was well mixed. 38 μL of Williams' Medium E was added. The mixture was well mixed and incubated in an incubator (in a total volume of 200 μL), and the timer was started. For the blank control, […] of Williams' Medium E was added instead of the working solution. For 0-min samples, 400 μL of acetonitrile (containing 0.1% formic acid) was added, followed by the working solution and Williams' Medium E.
(§13) 2) After 180 min of incubation, the samples were measured for the cell viability. Then 400 μL of acetonitrile (containing 0.1% formic acid) solution was added to terminate the reaction.
(§14) 3) After the reaction was terminated, the plate was shaken on a shaker at 300 rpm for 10 min, followed by centrifugation at least 10000×g for at least 10 min. After centrifugation, the supernatant was all transferred to centrifuge tubes and dried with nitrogen.
(§15) 4) The residues were re-dissolved in a suitable solvent, and centrifuged at least 10000×g for at least 15 min at room temperature. The supernatant was transferred to a sample analysis plate for LC-MS analysis.
(§16) 5) The methodology for 7-ethoxycoumarin (30 μM) was the same as that of test samples. Samples of the test compounds after incubation were used for metabolite assay only when the target metabolite was detected in the positive control sample. Otherwise, the above experiment should be repeated.
(§17) 6. Data Acquisition and Analysis […]

[4] = test system: rat hepatocytes; experiment: Metabolite study in rat hepatocyte incubation system; assay type: in vitro ADME; settings: 180 min incubation, LC-MS
Procedure: as §1, §2, §3, §4, §5, §6, §7, §8, §9, §10, §11, §12, §13, §14, §15, §16, §17

T1 sequence (P11712 whole entry): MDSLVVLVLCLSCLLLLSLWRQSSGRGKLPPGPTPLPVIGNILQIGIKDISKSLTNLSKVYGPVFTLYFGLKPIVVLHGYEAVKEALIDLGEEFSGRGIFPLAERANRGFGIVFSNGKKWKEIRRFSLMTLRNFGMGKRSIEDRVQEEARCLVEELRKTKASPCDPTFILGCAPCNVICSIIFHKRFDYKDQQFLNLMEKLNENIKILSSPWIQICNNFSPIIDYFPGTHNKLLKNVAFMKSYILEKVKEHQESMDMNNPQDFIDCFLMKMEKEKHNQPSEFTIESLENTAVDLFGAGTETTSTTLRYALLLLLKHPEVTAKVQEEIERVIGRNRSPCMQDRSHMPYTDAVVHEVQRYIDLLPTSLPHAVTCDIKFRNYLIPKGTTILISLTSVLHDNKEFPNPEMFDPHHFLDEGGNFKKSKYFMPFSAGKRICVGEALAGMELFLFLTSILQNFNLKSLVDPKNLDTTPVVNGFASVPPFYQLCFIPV

inhibitory effect on CYP enzymes (CYP2C9) [2]: very low or no inhibitory effect
SMILES: CCc1nc2ncc(C(F)(F)F)cn2c1C(=O)c1cc(Br)c(O)c(Br)c1 [Example 5, (3,5-dibromo-4-hydroxyphenyl)(2-ethyl-6-(trifluoromethyl)imidazo[1,2-a]pyrimidin-3-yl)methanone]
pIC50 [1]: 4.11 | toxic metabolites of benzbromarone type [3]: not observed | toxic metabolites of benzbromarone type [4]: not observed

inhibitory effect on CYP enzymes (CYP2C9) [2]: very low or no inhibitory effect
SMILES: CCc1nc2cc(Cl)ncn2c1C(=O)c1cc(Br)c(O)c(Br)c1 [Example 21, (7-chloro-2-ethylimidazo[1,2-f]pyrimidin-3-yl)(3,5-dibromo-4-hydroxyphenyl)methanone]
pIC50 [1]: 3.46 | toxic metabolites of benzbromarone type [3]: not observed | toxic metabolites of benzbromarone type [4]: not observed

Second part, the compound before the results:

SMILES: CCc1nc2ncc(F)cn2c1C(=O)c1cc(Br)c(O)c(Br)c1 [Example 4, (3,5-dibromo-4-hydroxyphenyl)(2-ethyl-6-fluoroimidazo[1,2-a]pyrimidin-3-yl)methanone]
pIC50 [1]: 3.59 | inhibitory effect on CYP enzymes (CYP2C9) [2]: very low or no inhibitory effect | toxic metabolites of benzbromarone type [3]: not observed | toxic metabolites of benzbromarone type [4]: not observed

SMILES: CCc1nc2ncc(F)cn2c1C(=O)c1cc(Br)c(O)c(C#N)c1 [Example 14, 3-bromo-5-(2-ethyl-6-fluoroimidazo[1,2-a]pyrimidine-3-carbonyl)-2-hydroxybenzonitrile]
pIC50 [1]: ≤ 3.00 | inhibitory effect on CYP enzymes (CYP2C9) [2]: very low or no inhibitory effect | toxic metabolites of benzbromarone type [3]: not observed | toxic metabolites of benzbromarone type [4]: not observed

SMILES: CCc1nc2ncccn2c1C(=O)c1cc(Br)c(O)c(Br)c1 [Example 20, 2,6-dibromo-4-([2-ethylimidazo[1,2-a]pyrimidin-3-yl]carbonyl) phenol]
inhibitory effect on CYP enzymes (CYP2C9) [2]: very low or no inhibitory effect | toxic metabolites of benzbromarone type [3]: not observed | toxic metabolites of benzbromarone type [4]: not observed
